Results as given in PubChem BioAssay (NCI).
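Values below derive from 48-hour exposures of cells grown in 96-well plates, with endpoints linearly interpolated between the two concentrations bracketing the appropriate inhibition level. GI50 marks 50% less growth. TGI: total growth inhibition.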

Columns and labels:
Assay in all cases: inhibition of tumour cell growth, NCI panel, 48 h
[1] = tested on: SF-268 CNS
[2] = tested on: MDA-MB-231 breast
[3] = tested on: NCI-H23 lung
[4] = tested on: SK-MEL-5 melanoma
[5] = tested on: 786-0 renal
[6] = tested on: M14 melanoma
[7] = tested on: A498 renal
[8] = tested on: OVCAR-4 ovarian
[9] = tested on: SW-620 colon
[10] = tested on: UO-31 renal
[11] = tested on: MDA-MB-435
[12] = tested on: OVCAR-5 ovarian
[13] = tested on: ACHN renal
[14] = tested on: RXF 393 renal
[15] = tested on: SNB-19 CNS
[16] = tested on: PC-3 prostate
[17] = tested on: NCI/ADR-RES ovarian
[18] = tested on: LOX IMVI melanoma
[19] = tested on: SK-MEL-2 melanoma
[20] = tested on: SF-295 CNS
[21] = tested on: DU-145 prostate
[22] = tested on: SK-MEL-28 melanoma
[23] = tested on: OVCAR-8 ovarian
[24] = tested on: K-562 leukemia
[25] = tested on: RPMI-8226 leukemia
[26] = tested on: SF-539 CNS
[27] = tested on: HCT-15 colon
[28] = tested on: BT-549 breast
[29] = tested on: UACC-257 melanoma
[30] = tested on: OVCAR-3 ovarian
[31] = tested on: MOLT-4 leukemia
[32] = tested on: SNB-75 CNS
[33] = tested on: HT29 colon
[34] = tested on: U251 CNS
[35] = tested on: UACC-62 melanoma
[36] = tested on: CCRF-CEM leukemia
[37] = tested on: HOP-62 NSCLC
[38] = tested on: HOP-92 NSCLC
[39] = tested on: COLO 205 colon
[40] = tested on: MALME-3M melanoma
[41] = tested on: TK-10 renal
[42] = tested on: NCI-H226 lung
[43] = tested on: SN12C renal
[44] = tested on: IGROV1 ovarian
[45] = tested on: EKVX NSCLC
[46] = tested on: CAKI-1 renal
[47] = tested on: A549 NSCLC
[48] = tested on: NCI-H460 lung
[49] = tested on: HCT-116 colon
[50] = tested on: NCI-H522 lung
[51] = tested on: KM12 colon
[52] = tested on: MCF7 breast
[53] = tested on: T-47D breast
[54] = tested on: HS 578T breast
[55] = tested on: HCC-2998 colon
[56] = tested on: HL-60(TB) leukemia
[57] = tested on: SK-OV-3 ovarian

CCCCCCCCCCNCCSS(=O)(=O)O
GI50 [1]: 1.22 µM
TGI [1]: 2.52 µM
GI50 [2]: 1.77 µM
TGI [2]: 3.69 µM
GI50 [3]: 1.9 µM
TGI [3]: 4.49 µM
GI50 [4]: 2.14 µM
TGI [4]: 5.59 µM
GI50 [5]: 4.55 µM
TGI [5]: 14.3 µM
GI50 [6]: 0.425 µM
TGI [6]: 2.64 µM
GI50 [7]: 5.48 µM
TGI [7]: 19.9 µM
GI50 [8]: 9.91 µM
TGI [8]: 24.4 µM
GI50 [9]: 1.95 µM
TGI [9]: 4.32 µM
GI50 [10]: 3.3 µM
TGI [10]: 12.9 µM
GI50 [11]: 1.14 µM
TGI [11]: 2.91 µM
GI50 [12]: 2.27 µM
TGI [12]: 4.24 µM
GI50 [13]: 10.1 µM
TGI [13]: 25.4 µM
GI50 [14]: 2.21 µM
TGI [14]: 3.91 µM
GI50 [15]: 1.72 µM
TGI [15]: 3.24 µM
GI50 [16]: 1.98 µM
TGI [16]: 4.07 µM
GI50 [17]: 2.11 µM
TGI [17]: 4.37 µM
GI50 [18]: 1.69 µM
TGI [18]: 3.26 µM
GI50 [19]: 2.4 µM
TGI [19]: 6.63 µM
GI50 [20]: 1.83 µM
TGI [20]: 3.65 µM
GI50 [21]: 1.82 µM
TGI [21]: 3.28 µM
GI50 [22]: 1.65 µM
TGI [22]: 4.84 µM
GI50 [23]: 2.12 µM
TGI [23]: 4.68 µM
GI50 [24]: 2.61 µM
TGI [24]: 7.28 µM
GI50 [25]: 2.2 µM
TGI [25]: 5.7 µM
GI50 [26]: 2.31 µM
TGI [26]: 5.21 µM
GI50 [27]: 3.97 µM
TGI [27]: 17 µM
GI50 [28]: 6.15 µM
TGI [28]: 21.8 µM
GI50 [29]: 7.88 µM
TGI [29]: 22.4 µM
GI50 [30]: 1.98 µM
TGI [30]: 3.46 µM
GI50 [31]: 2.06 µM
TGI [31]: 4.92 µM
GI50 [32]: 2.23 µM
TGI [32]: 4.22 µM
GI50 [33]: 2.21 µM
TGI [33]: 4.79 µM
GI50 [34]: 1.99 µM
TGI [34]: 4.12 µM
GI50 [35]: 1.42 µM
TGI [35]: 3 µM
GI50 [36]: 1.86 µM
TGI [36]: 3.98 µM
GI50 [37]: 1.86 µM
TGI [37]: 3.58 µM
GI50 [38]: 8.84 µM
TGI [38]: 25.7 µM
GI50 [39]: 13 µM
TGI [39]: 27.2 µM
GI50 [40]: 5.83 µM
TGI [40]: 19.6 µM
GI50 [41]: 5.31 µM
TGI [41]: 17.7 µM
GI50 [42]: 2.51 µM
TGI [42]: 5.16 µM
GI50 [43]: 1.86 µM
TGI [43]: 3.6 µM
GI50 [44]: 4.82 µM
TGI [44]: 17.6 µM
GI50 [45]: 4.14 µM
TGI [45]: 19.2 µM
GI50 [46]: 14.5 µM
TGI [46]: 33.3 µM
GI50 [47]: 2.1 µM
TGI [47]: 5.27 µM
GI50 [48]: 1.72 µM
TGI [48]: 3.22 µM
GI50 [49]: 2.01 µM
TGI [49]: 3.85 µM
GI50 [50]: 2.09 µM
TGI [50]: 4.31 µM
GI50 [51]: 1.55 µM
TGI [51]: 2.95 µM
GI50 [52]: 1.81 µM
TGI [52]: 3.38 µM
GI50 [53]: 10.9 µM
TGI [53]: 29.5 µM
GI50 [54]: 1.67 µM
TGI [54]: 3.6 µM
GI50 [55]: 1.73 µM
TGI [55]: 3.19 µM
GI50 [56]: 1.76 µM
TGI [56]: 3.74 µM
GI50 [57]: 2.6 µM
TGI [57]: 7.58 µM

C=C1C(=O)O[C@H]2[C@H]1CC/C(COC(=O)/C=C\C(=O)NCc1ccc(Cn3c(=O)sn(CCI)c3=O)cc1)=C\CC[C@@]1(C)O[C@@H]21
GI50 [1]: 10.1 µM
TGI [1]: 23.6 µM
GI50 [2]: 2.52 µM
TGI [2]: 6.68 µM
GI50 [3]: 3.34 µM
TGI [3]: 11.8 µM
GI50 [4]: 12.8 µM
TGI [4]: 25.7 µM
GI50 [5]: 2.6 µM
TGI [5]: 7.23 µM
GI50 [6]: 6.25 µM
TGI [6]: 19.7 µM
GI50 [7]: 13.9 µM
TGI [7]: 27 µM
GI50 [8]: 3.62 µM
TGI [8]: 17.3 µM
GI50 [9]: 1.92 µM
TGI [9]: 3.75 µM
GI50 [10]: 2.56 µM
TGI [10]: 8.47 µM
GI50 [11]: 3.04 µM
TGI [11]: 8.68 µM
GI50 [12]: 3.56 µM
TGI [12]: 13.3 µM
GI50 [13]: 1.93 µM
TGI [13]: 3.74 µM
GI50 [14]: 1.81 µM
TGI [14]: 3.69 µM
GI50 [15]: 11.4 µM
TGI [15]: 24.7 µM
GI50 [16]: 7.37 µM
TGI [16]: 21.5 µM
GI50 [17]: 10.2 µM
TGI [17]: > 100 µM
GI50 [18]: 2.18 µM
TGI [18]: 4.88 µM
GI50 [19]: 11.1 µM
TGI [19]: 23.4 µM
GI50 [20]: 18.9 µM
TGI [20]: 33.4 µM
GI50 [21]: 3.61 µM
TGI [21]: 13.2 µM
GI50 [22]: 2.23 µM
TGI [22]: 5.04 µM
GI50 [23]: 2.78 µM
TGI [23]: 8.76 µM
GI50 [24]: 2.45 µM
TGI [24]: > 100 µM
GI50 [26]: 3.36 µM
TGI [26]: 9.51 µM
GI50 [27]: 2.1 µM
TGI [27]: 5.42 µM
GI50 [28]: 10.7 µM
TGI [28]: 22.6 µM
GI50 [29]: 2.07 µM
TGI [29]: 5.97 µM
GI50 [30]: 1.76 µM
TGI [30]: 3.24 µM
GI50 [31]: 2.24 µM
TGI [31]: 6.32 µM
GI50 [32]: 4.24 µM
TGI [32]: 18.5 µM
GI50 [33]: 2.26 µM
TGI [33]: 4.92 µM
GI50 [34]: 7.63 µM
TGI [34]: 20.2 µM
GI50 [35]: 1.83 µM
TGI [35]: 3.86 µM
GI50 [36]: 1.61 µM
TGI [36]: 6.19 µM
GI50 [37]: 15.1 µM
TGI [37]: 28.6 µM
GI50 [38]: 2.05 µM
TGI [38]: 4.6 µM
GI50 [39]: 2.06 µM
TGI [39]: 3.69 µM
GI50 [40]: 1.85 µM
TGI [40]: 3.63 µM
GI50 [41]: 2.09 µM
TGI [41]: 4.35 µM
GI50 [42]: 20.9 µM
TGI [42]: 49 µM
GI50 [43]: 3.15 µM
TGI [43]: 10.8 µM
GI50 [44]: 3.17 µM
TGI [44]: 11.9 µM
GI50 [45]: 4.7 µM
TGI [45]: 20.2 µM
GI50 [46]: 1.66 µM
TGI [46]: 3.03 µM
GI50 [47]: 14.8 µM
TGI [47]: 30.5 µM
GI50 [48]: 15.5 µM
TGI [48]: 37.9 µM
GI50 [49]: 1.93 µM
TGI [49]: 4.75 µM
GI50 [50]: 1.48 µM
TGI [50]: 2.93 µM
GI50 [51]: 11.5 µM
TGI [51]: 24.5 µM
GI50 [52]: 3.37 µM
TGI [52]: 25.9 µM
GI50 [53]: 2.58 µM
TGI [53]: 6.83 µM
GI50 [54]: 14 µM
TGI [54]: 73.6 µM
GI50 [55]: 13.9 µM
TGI [55]: 27.8 µM
GI50 [56]: 1.59 µM
TGI [56]: 5.41 µM
GI50 [57]: 17.4 µM
TGI [57]: 31.2 µM
